Experiment [1] deals with MmCobD (MM2060 protein, full length) (Methanosarcina mazei, UniProt Q8PVB1). The experiment in a line: ADP-Glo ATPase inhibition assay. It counts as biochemical. The conditions noted are these: MmCobD 6 μM, HEPES pH 7.5. For orientation: ADP-Glo turns the ADP formed in a reaction into a luminescent signal.
Experiment [2] addresses T1, SeCobD (Salmonella enterica, UniProt P97084).
T1 sequence (P97084 1-364): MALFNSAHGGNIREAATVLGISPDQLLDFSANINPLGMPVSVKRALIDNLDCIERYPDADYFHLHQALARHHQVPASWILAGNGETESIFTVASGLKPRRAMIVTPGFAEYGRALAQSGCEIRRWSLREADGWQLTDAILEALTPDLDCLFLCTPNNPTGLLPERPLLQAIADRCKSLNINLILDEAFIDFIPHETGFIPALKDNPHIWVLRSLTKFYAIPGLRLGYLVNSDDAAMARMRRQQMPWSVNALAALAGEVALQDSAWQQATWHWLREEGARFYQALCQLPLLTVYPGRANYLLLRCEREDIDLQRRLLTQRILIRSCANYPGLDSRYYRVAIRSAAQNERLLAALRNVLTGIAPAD
The experiment in a line: […]-NMR and […] TLC decarboxylation assay. Type of experiment: biochemical. The following applies: decarboxylated to (R)-1-aminopropan-2-ol O-phosphate; pH 8.5.

For the compound `O=P(O)(O)OP(=O)(O)OP(=O)(O)O` [PPPi], in experiment [1] (inhibitor 10 mM), the inhibition entry is “MmCobD was inhibited in the following order from most inhibitory to least: BeF2>ADP>ADP-γ-S>PPPi>Na3VO4”.

For `[O]=[V]([OH])([OH])[OH]` [Na3VO4], the inhibition entry in experiment [1] (inhibitor 1 mM, weakest of the series) was “MmCobD was inhibited in the following order from most inhibitory to least: BeF2>ADP>ADP-γ-S>PPPi>Na3VO4”.

Take `C[C@@H](OP(=O)(O)O)[C@H](N)C(=O)O` [L-Thr-P]: in experiment [2], the “13C-NMR and 14C TLC decarboxylation assay” value is listed as “conversion of L-Thr-P (peaks A, B, C, D; red) to AP-P”.

(Values after PMC6143143 (Biochemistry, 2018).)
